Measurements reported in patent US20120157401A1, “METHODS FOR TREATING NEUROFIBROMATOSIS” (PTC Therapeutics, Inc., priority 2009, published 2012).
Marks after values point to notes of the source that are not given here.

How the values were obtained:
[1] = tested on: soluble VEGF121 and VEGF165 isoforms; experiment: ELISA of soluble VEGF121/165 production in HeLa cells during hypoxia or normoxia; type: cell-based, human; settings: 48 hours
Method: Experimental Design. HeLa (human cervical carcinoma) cell cultures were established under normoxic conditions (21% oxygen). HeLa cells increase VEGF production 4- to 5-fold in response to hypoxia. […] At the completion of treatment, the conditioned media were collected and the VEGF protein levels were assayed in an enzyme-linked immunosorbent assay (ELISA) with primary antibodies that recognize the soluble VEGF121 and VEGF165 isoforms (R & D Systems, Minneapolis, Minn., USA). To ensure that decreases in VEGF concentration were not due to cytotoxicity, cultures were assayed using a standard assay ([…]-GLO® Luminescent Cell Viability Assay; Promega, Madison, Wis., USA) that measures total cellular adenosine triphosphate (ATP) concentrations as an indicator of cell viability.

[2] = tested on: MDA-MB-468 xenografts; experiment: MDA-MB-468 estrogen-insensitive breast cancer xenograft: tumor growth; type: in vivo
Method: Tumor size was measured by calipers at periodic intervals. When the individual tumor size in a mouse exceeded 1500 mm^3, that mouse was sacrificed and both tumor and plasma were assayed for pathologic VEGF concentration as described in Section 9.1.1.1.

[3] = Functional observation battery, 7 days oral gavage; type: in vivo, Sprague Dawley rats; settings: 40, 120, and 400 mg/kg daily for 7-days
[4] = Respiratory safety pharmacology in awake telemeterized dogs; type: in vivo, beagle dogs; settings: single oral doses of 30, 60, and 120 mg/kg, male dogs

COc1ccc(C2c3[nH]c4ccc(Cl)cc4c3CCN2C(=O)Oc2ccc(Cl)cc2)cc1 (racemic) [Compound #10]
Inhibition of stress-induced VEGF production (FIG. 25) ([1]; hypoxia-induced): inhibit stress-induced VEGF production | Maximal decrease in VEGF concentration in conditioned media ([1]; hypoxic (1% oxygen)): 87% | Mean VEGF concentration in conditioned media at maximal decrease ([1]; hypoxic (1% oxygen)): 175 pg/mL | Decrease in VEGF concentration in conditioned media ([1]; normoxic): 39% | Mean VEGF concentration in conditioned media in the presence of compound ([1]; normoxic): 157 pg/mL | Mean % Inhibition of Tumor Size vs Vehicle at Day 12 ([2]; 10 mg/kg oral QD): 65* % | Median Time to Tumor Size ≧1000 mm^3 ([2]; 10 mg/kg oral QD): 25 days | Toxicity on observing the animals ([2]; MDA-MB-468 xenograft mice, 10 mg/kg QD): no evidence of toxicity | Behavioral or neurological effects [3]: no adverse behavioral or neurological effects | Changes in respiratory rate, core body temperature, arterial blood gases, arterial pH, or arterial bicarbonate [4]: no dose dependent or biologically significant changes
